What was measured:
[1] = Stability in chronic wound extracts (CWE), capillary zone electrophoresis; assay type: in vitro ADME, human; conditions: 37°C, 96 h, CZE; for Starting material remaining intact after 96 h in CWE: 1 mg/ml in PBS mixed 1:1 with CWE (1 mg/ml protein, pools of 5 donors), 0 h = 100%, mean of 3 independent experiments; for Degradation in CWE in 96 h: incubation with chronic wound extracts
Excerpt: Debridement tissue was obtained from chronic ulcers of 15 patients with therapy resistant (arterio-venous) leg ulcers, according to procedures described earlier. In brief, moist, easily removable debridement material, essentially blood free, was collected from the ulcer surface and divided equally into two different solutions: (i) PBS (B. Braun, Melsungen, Germany), (ii) PBS with protease inhibitor cocktail (PIC) (1:100; v/v) (Sigma-Aldrich, Steinheim, Germany). The mixtures were gently shaken for 1 h at 4°C to elute proteins and centrifuged; the supernatants were stored at -80°C. Total protein content of the supernatant was measured using the BioRad Protein Assay (BioRad Laboratories, Hercules, California, USA) essentially as described by the supplier. Samples were diluted to 1 mg/ml protein and extracts of five different donors were pooled; three different pools of five donors were used in all experiments. The samples are referred to as chronic wound extracts (CWE).
To determine the stability of the different peptides in CWE, histatins and cytokines were dissolved in PBS at 1 mg/ml. Histatins and cytokines were incubated in a 1:1 ratio with (i) PBS, (ii) CWE in PBS, or (iii) CWE in PBS containing PIC, in a total volume of 25 μl. Imidazole (Sigma-Aldrich) was added as an internal standard, with a final concentration of 100 μg/ml. The mixtures were incubated at 37°C, and samples were taken at 0, 24, 48, 72 and 96 h. For histatins containing mixtures, additional samples were taken after 2, 4, 8 and 16 h of incubation.
The samples were analyzed with a BioFocus 2000 capillary zone electrophoresis system (Bio-Rad Laboratories, Hercules, CA, USA) equipped with an uncoated fused-silica capillary of internal diameter 50 μm and a length of 24 cm. Samples were loaded by pressure injection (5 psi/sec). Separation was performed at 10 kV (cathode at the detector side) at 20°C using 0.1 M phosphate buffer (pH 2.5) as electrolyte and monitored continuously at 200 nm. Peaks were quantified with the BioFocus Integrator software. In order to quantify the percentage of intact peptides remaining after incubation with CWE, the ratios of histatins, rhIL-6 or rhCXCL8 to internal standard was set at 100% at 0h, and the ratios at the other incubation time points were related to this.

[2] = test system: dermal fibroblasts; test: Fibroblast wound healing scratch assay (migration); assay type: cell-based, human; conditions: serum-free medium, histatins 5 μM, rhIL-6 125 ng/ml, rhCXCL8 250 ng/ml, (E0-E96)/(U0-U96), unexposed = 1; for Migration of dermal fibroblasts in scratch assay, 8 h exposure: 8 h exposure then 88 h without, read at 96 h; for Migration of dermal fibroblasts in scratch assay, 96 h exposure: continuous 96 h exposure
Experimental: Dermal fibroblasts were isolated from healthy human abdominal skin from patients undergoing corrective abdominal plastic surgery. After removal of all adipose tissue, the skin was washed in PBS and incubated overnight on dispase II (Roche, Mannheim, Germany) at 4°C. The next day, epidermis was removed and discarded and the dermis was incubated in collagenase type II (Gibco, Life Technologies, Grand Island, USA)/dispase II in Hanks balanced salt solution (HBSS) (Gibco) at 37°C for 2–3 h. Fibroblast medium consisting of DMEM (Lonza, Verviers, Belgium) containing 1% ultroserG (UG) (Biosepra, Cergy-Saint-Christopher, France) and 1% penicillin-streptomycin (P/S) (Gibco) was added and the solution was passed through an 100 μm and 40 μm cell strainer (Becton Dickinson Falcon, Erembodegem, Belgium). A single cell suspension was seeded at ± 3.5 x 10^4 cells cm^2 and further cultured in fibroblast medium. Medium was changed twice a week and cultures were passaged when 90% confluent using 0.5mM EDTA/0.05% trypsin (Gibco). The cells were maintained at 37°C in a humidified atmosphere containing 5% CO2 and used for experiments at passage 3.
A wound healing scratch assay was performed to determine the effect of histatins, rhIL-6 and rhCXCL8 on fibroblast migration. Confluent monolayers of fibroblasts in a 48-well plate (Costar, Corning Incorporated, New York, USA) were incubated with serum-free medium (DMEM containing 1% P/S and 0.1% bovine serum albumin (Sigma-Aldrich)) for 96 h to ensure minimum spontaneous migration. Next, a scratch was drawn with a disposable plastic pipette tip. Cultures were exposed to Hst1, cHst1, Hst2 and mad-Hst1 (all used at a concentration of 5μM), rhIL-6 (125 ng/ml), rhCXCL8 (250 ng/ml) and vehicle (H2O) in serum free medium. Two experimental set-ups were studied: i) cells were exposed only during the first 8 h to histatins and cytokines and then transferred to vehicle supplemented medium for an additional 88 h; or ii) cells were exposed to histatins and cytokines during the entire 96 h study period. Phase contrast micrographs were taken directly after drawing the scratch and after four days (96 h) of exposure. Data were analyzed using an image processing algorithm that has been described in detail in our previous work. The area of the scratch covered by migrating fibroblasts was determined using the following equation: (E0-E96)/(U0-U96), in which: E = exposure to a condition (IL-6, CXCL8 and histatins); U = unexposed (serum-free medium); E0 and U0 = area of the scratch at T = 0 h; E96 and U96 = area of the scratch (not covered with cells) after 96 h. In this way, in each exposed group (IL-6, CXCL8, histatins) the resurfaced area at 96 h is compared to its own 0 h time point and then set relative to the unexposed group (serum-free medium).

[3] = experiment 1, average of four replicates
[4] = experiment 2, average of four replicates
[5] = experiment 3, average of four replicates
[6] = experiment 4, average of four replicates

Substance | Starting material remaining intact after 96 h in CWE [1] | Degradation in CWE in 96 h [1] | Migration of dermal fibroblasts in scratch assay, 8 h exposure [2, 3] | Migration of dermal fibroblasts in scratch assay, 8 h exposure [2, 4] | Migration of dermal fibroblasts in scratch assay, 8 h exposure [2, 5] | Migration of dermal fibroblasts in scratch assay, 8 h exposure [2, 6] | Migration of dermal fibroblasts in scratch assay, 96 h exposure [2, 3] | Migration of dermal fibroblasts in scratch assay, 96 h exposure [2, 4] | Migration of dermal fibroblasts in scratch assay, 96 h exposure [2, 5] | Migration of dermal fibroblasts in scratch assay, 96 h exposure [2, 6]
rhCXCL8: recombinant human CXCL8; source not split at this label (migration assay used CXCL8 (6–77) from R&D) | approximately 80% | ~ 40% | 1.29 | 1.35 | 1.63 | 2.13 | 1.13 | 1.58 | 1.46 | 1.64
rhIL-6: recombinant human IL-6; source not split at this label | more than 55% | ~ 40% | 1.22 | 1.38 | 1.91 | 2.25 | 1.7 | 1.23 | 1.5 | 2.03
